The values below come from BindingDB's records for doi:10.1016/j.bmcl.2004.10.085 (Bristol-Myers Squibb Pharmaceutical Research Institute, 2004).

In the test the target is T1, Androgen receptor (Homo sapiens, UniProt P10275).
T1 sequence (P10275 whole entry): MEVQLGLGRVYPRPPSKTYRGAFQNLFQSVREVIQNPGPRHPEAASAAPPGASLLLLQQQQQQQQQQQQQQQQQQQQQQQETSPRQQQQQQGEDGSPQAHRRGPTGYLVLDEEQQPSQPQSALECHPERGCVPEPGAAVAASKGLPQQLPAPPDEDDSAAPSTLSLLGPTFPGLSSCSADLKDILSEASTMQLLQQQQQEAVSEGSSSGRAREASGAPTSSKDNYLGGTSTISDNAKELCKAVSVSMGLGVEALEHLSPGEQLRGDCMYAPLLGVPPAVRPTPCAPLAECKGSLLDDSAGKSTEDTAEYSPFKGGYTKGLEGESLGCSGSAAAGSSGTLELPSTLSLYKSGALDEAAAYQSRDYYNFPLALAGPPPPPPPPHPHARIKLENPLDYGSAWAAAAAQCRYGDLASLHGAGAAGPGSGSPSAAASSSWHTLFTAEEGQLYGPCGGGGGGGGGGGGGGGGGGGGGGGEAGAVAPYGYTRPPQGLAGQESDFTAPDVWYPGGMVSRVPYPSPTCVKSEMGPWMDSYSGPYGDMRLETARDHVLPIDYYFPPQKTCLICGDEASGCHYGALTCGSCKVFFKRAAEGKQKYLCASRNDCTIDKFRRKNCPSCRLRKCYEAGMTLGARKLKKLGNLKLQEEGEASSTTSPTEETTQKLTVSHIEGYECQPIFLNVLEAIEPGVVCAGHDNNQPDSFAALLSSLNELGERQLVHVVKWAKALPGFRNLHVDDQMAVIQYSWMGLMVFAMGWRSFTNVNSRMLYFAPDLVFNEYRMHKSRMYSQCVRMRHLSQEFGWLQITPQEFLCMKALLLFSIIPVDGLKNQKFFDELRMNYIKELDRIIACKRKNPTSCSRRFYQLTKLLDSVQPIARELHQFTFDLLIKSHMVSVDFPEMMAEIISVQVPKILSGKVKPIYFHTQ
Kind of test: Inhibition of androgen dependent human prostate cancer cell […] proliferation.

`Oc1c2c(c(O)n1-c1cccc(C(F)(F)F)c1)C1C=CC2CC1` [(2R,6S)-4-(3-Trifluoromethyl-phenyl)-4-aza-tricyclo[5.2.2.0*2,6*]undec-8-ene-3,5-dione] displayed an IC50 of 0.4 nM.

In the case of `Oc1c2c(c(O)n1-c1cccc(C(F)(F)F)c1)C1C=CC2[C@H]2C[C@@H]12` [(2R,6S,8S,10R)-4-[3-(trifluoromethyl)phenyl]-4-azatetracyclo[5.3.2.0^{2,6}.0^{8,10}]dodec-11-ene-3,5-dione], it took 148 nM to reach half-maximal inhibition (IC50).

Regarding `Oc1c2c(c(O)n1-c1cccc(C(F)(F)F)c1)C1CCCC2CC1` [(2S,6R)-4-(3-Trifluoromethyl-phenyl)-4-aza-tricyclo[5.3.2.0*2,6*]dodecane-3,5-dione], the IC50 turned out to be 179 nM.

With `Oc1c2c(c(O)n1-c1ccc(Cl)c(Cl)c1)C1C=CC2C1` [(2R,6S)-4-(3,4-Dichloro-phenyl)-4-aza-tricyclo[5.2.1.0*2,6*]dec-8-ene-3,5-dione], the IC50 was 180 nM.

Take `CN1C(=O)C2C=CC1c1c2c(O)n(-c2ccc([N+](=O)[O-])c3ccccc23)c1O` [(2R,6R)-8-Methyl-4-(4-nitro-naphthalen-1-yl)-4,8-diaza-tricyclo[5.2.2.0*2,6*]undec-10-ene-3,5,9-trione]: 8460 nM corresponded to half-maximal inhibition (IC50).

A word on the IC50: it is the point on the concentration scale where inhibition reaches its midpoint.
